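Grown in 96-well plates, cells were treated for 48 hours with each compound at five concentrations. Insufficient inhibition: endpoint recorded as highest concentration tested. TGI marks complete inhibition of growth.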
Columns and labels:
Assay in all cases: NCI anticancer screen, dose series, 48 h
KM12 colon = system: KM12 colon
LOX IMVI melanoma = system: LOX IMVI melanoma
SK-OV-3 ovarian = system: SK-OV-3 ovarian
SK-MEL-2 melanoma = system: SK-MEL-2 melanoma
HCT-116 colon = system: HCT-116 colon
UACC-62 melanoma = system: UACC-62 melanoma
IGROV1 ovarian = system: IGROV1 ovarian
DMS 114 small cell lung = system: DMS 114 small cell lung
SF-539 CNS = system: SF-539 CNS
UO-31 renal = system: UO-31 renal
OVCAR-5 ovarian = system: OVCAR-5 ovarian
NCI-H226 lung = system: NCI-H226 lung
RPMI-8226 leukemia = system: RPMI-8226 leukemia
OVCAR-4 ovarian = system: OVCAR-4 ovarian
SW-620 colon = system: SW-620 colon
NCI-H23 lung = system: NCI-H23 lung
SK-MEL-28 melanoma = system: SK-MEL-28 melanoma
HOP-18 NSCLC = system: HOP-18 NSCLC
MOLT-4 leukemia = system: MOLT-4 leukemia
XF 498 CNS = system: XF 498 CNS
UACC-257 melanoma = system: UACC-257 melanoma
HCT-15 colon = system: HCT-15 colon
NCI-H460 lung = system: NCI-H460 lung
RXF 393 renal = system: RXF 393 renal
SK-MEL-5 melanoma = system: SK-MEL-5 melanoma
HL-60(TB) leukemia = system: HL-60(TB) leukemia
HOP-62 NSCLC = system: HOP-62 NSCLC
ACHN renal = system: ACHN renal
DLD-1 colon = system: DLD-1 colon
SNB-19 CNS = system: SNB-19 CNS
M14 melanoma = system: M14 melanoma
COLO 205 colon = system: COLO 205 colon
LXFL 529 NSCLC = system: LXFL 529 NSCLC
TK-10 renal = system: TK-10 renal
CAKI-1 renal = system: CAKI-1 renal
M19-MEL melanoma = system: M19-MEL melanoma
K-562 leukemia = system: K-562 leukemia
SNB-78 CNS = system: SNB-78 CNS
U251 CNS = system: U251 CNS
CCRF-CEM leukemia = system: CCRF-CEM leukemia
SF-268 CNS = system: SF-268 CNS
NCI-H522 lung = system: NCI-H522 lung
HCC-2998 colon = system: HCC-2998 colon
OVCAR-3 ovarian = system: OVCAR-3 ovarian
KM20L2 colon = system: KM20L2 colon
SR leukemia = system: SR leukemia
A498 renal = system: A498 renal
SN12C renal = system: SN12C renal
DMS 273 small cell lung = system: DMS 273 small cell lung
SF-295 CNS = system: SF-295 CNS
HOP-92 NSCLC = system: HOP-92 NSCLC
A549 NSCLC = system: A549 NSCLC
OVCAR-8 ovarian = system: OVCAR-8 ovarian
786-0 renal = system: 786-0 renal
HT29 colon = system: HT29 colon
EKVX NSCLC = system: EKVX NSCLC
SNB-75 CNS = system: SNB-75 CNS
MALME-3M melanoma = system: MALME-3M melanoma

CN(C)[C@@H]1C(=O)C(C(=O)NCNCCCC(=O)O)=C(O)[C@@]2(O)C(=O)C3=C(O)c4c(O)cccc4[C@@](C)(O)[C@H]3C[C@@H]12
TGI (KM12 colon): > 100 µM | TGI (LOX IMVI melanoma): > 100 µM | TGI (SK-OV-3 ovarian): > 100 µM | TGI (SK-MEL-2 melanoma): > 100 µM | TGI (HCT-116 colon): > 100 µM | TGI (UACC-62 melanoma): > 100 µM | TGI (IGROV1 ovarian): > 100 µM | TGI (DMS 114 small cell lung): > 100 µM | TGI (SF-539 CNS): > 100 µM | TGI (UO-31 renal): > 100 µM | TGI (OVCAR-5 ovarian): > 100 µM | TGI (NCI-H226 lung): > 100 µM | TGI (RPMI-8226 leukemia): > 100 µM | TGI (OVCAR-4 ovarian): > 100 µM | TGI (SW-620 colon): > 100 µM | TGI (NCI-H23 lung): > 100 µM | TGI (SK-MEL-28 melanoma): > 100 µM | TGI (HOP-18 NSCLC): > 100 µM | TGI (MOLT-4 leukemia): > 100 µM | TGI (XF 498 CNS): > 100 µM | TGI (UACC-257 melanoma): > 100 µM | TGI (HCT-15 colon): > 100 µM | TGI (NCI-H460 lung): > 100 µM | TGI (RXF 393 renal): > 100 µM | TGI (SK-MEL-5 melanoma): > 100 µM | TGI (HL-60(TB) leukemia): > 100 µM | TGI (HOP-62 NSCLC): > 100 µM | TGI (ACHN renal): > 100 µM | TGI (DLD-1 colon): > 100 µM | TGI (SNB-19 CNS): > 100 µM | TGI (M14 melanoma): > 100 µM | TGI (COLO 205 colon): > 100 µM | TGI (LXFL 529 NSCLC): > 100 µM | TGI (TK-10 renal): > 100 µM | TGI (CAKI-1 renal): > 100 µM | TGI (M19-MEL melanoma): > 100 µM | TGI (K-562 leukemia): > 100 µM | TGI (SNB-78 CNS): > 100 µM | TGI (U251 CNS): > 100 µM | TGI (CCRF-CEM leukemia): > 100 µM | TGI (SF-268 CNS): > 100 µM | TGI (NCI-H522 lung): > 100 µM | TGI (HCC-2998 colon): > 100 µM | TGI (OVCAR-3 ovarian): > 100 µM | TGI (KM20L2 colon): > 100 µM | TGI (SR leukemia): > 100 µM | TGI (A498 renal): > 100 µM | TGI (SN12C renal): > 100 µM | TGI (DMS 273 small cell lung): > 100 µM | TGI (SF-295 CNS): > 100 µM | TGI (HOP-92 NSCLC): > 100 µM | TGI (A549 NSCLC): > 100 µM | TGI (OVCAR-8 ovarian): > 100 µM | TGI (786-0 renal): > 100 µM | TGI (HT29 colon): > 100 µM | TGI (EKVX NSCLC): > 100 µM

COC1(OC)CC2C(=O)N(Cc3ccccc3)C1CC2S(=O)(=O)c1ccccc1 (stereo not drawn)
TGI (KM12 colon): > 100 µM | TGI (LOX IMVI melanoma): > 100 µM | TGI (SNB-75 CNS): > 100 µM | TGI (SK-OV-3 ovarian): > 100 µM | TGI (SK-MEL-2 melanoma): > 100 µM | TGI (HCT-116 colon): > 100 µM | TGI (UACC-62 melanoma): > 100 µM | TGI (IGROV1 ovarian): > 100 µM | TGI (DMS 114 small cell lung): > 100 µM | TGI (SF-539 CNS): > 100 µM | TGI (UO-31 renal): > 100 µM | TGI (NCI-H226 lung): > 100 µM | TGI (RPMI-8226 leukemia): > 100 µM | TGI (SW-620 colon): > 100 µM | TGI (NCI-H23 lung): > 100 µM | TGI (SK-MEL-28 melanoma): > 100 µM | TGI (HOP-18 NSCLC): > 100 µM | TGI (MOLT-4 leukemia): > 100 µM | TGI (XF 498 CNS): 98.7 µM | TGI (UACC-257 melanoma): > 100 µM | TGI (HCT-15 colon): > 100 µM | TGI (NCI-H460 lung): > 100 µM | TGI (RXF 393 renal): > 100 µM | TGI (SK-MEL-5 melanoma): > 100 µM | TGI (HL-60(TB) leukemia): > 100 µM | TGI (HOP-62 NSCLC): > 100 µM | TGI (ACHN renal): > 100 µM | TGI (DLD-1 colon): > 100 µM | TGI (SNB-19 CNS): > 100 µM | TGI (M14 melanoma): > 100 µM | TGI (COLO 205 colon): > 100 µM | TGI (TK-10 renal): > 100 µM | TGI (M19-MEL melanoma): > 100 µM | TGI (K-562 leukemia): > 100 µM | TGI (MALME-3M melanoma): > 100 µM | TGI (U251 CNS): > 100 µM | TGI (CCRF-CEM leukemia): > 100 µM | TGI (NCI-H522 lung): > 100 µM | TGI (OVCAR-3 ovarian): > 100 µM | TGI (SN12C renal): > 100 µM | TGI (DMS 273 small cell lung): > 100 µM | TGI (SF-295 CNS): > 100 µM | TGI (A549 NSCLC): > 100 µM | TGI (OVCAR-8 ovarian): > 100 µM | TGI (786-0 renal): > 100 µM | TGI (HT29 colon): > 100 µM | TGI (EKVX NSCLC): > 100 µM

Reference: PubChem BioAssay (NCI)
